Data set [1] relates to model of a urination disorder associated with streptozocin-induced diabetes. The data set is described as follows: Test Example 6: urination disorder model associated with streptozocin-induced diabetes, compound A versus dutasteride. In kind it is in vivo, rat. The protocol: As described below, a model of a urination disorder associated with streptozocin-induced diabetes was prepared as a urination disorder model in accordance with Test Example 4 to evaluate the effects of the compound A and the compound C on a urination disorder. This model has no benign prostatic hyperplasia and is a model of a urination disorder associated with neuropathy and smooth muscle contraction disorder.
The body weights of Rats (male, Crl:CD(SD), 5-week-old; Charles River Laboratories Japan, Inc.) were measured. On the basis of the body weight, the rats were grouped or divided into two (2) groups. The day after the rats were grouped, a fist group received intraperitoneal administration of a citrate buffer (pH 4.5) (10 mL/kg) having a concentration of 0.1 mmol/L, and a second group received intraperitoneal administration of streptozocin (STZ; Sigma-Aldrich) (50 mg/kg). Streptozocin (STZ) was administered in the form of a solution of streptozocin having a concentration of 5 mg/mL in the citrate buffer.
About one (1) week after streptozocin (STZ) was administered, the body weight and the fasting blood glucose were measured. In the streptozocin (STZ) administration group (the second group), individuals having a fasting blood glucose level of not less than 300 mg/dL were used as animals with induced diabetes. These animals with induced diabetes are a model having no abnormality of the prostate (having no benign prostatic hyperplasia). On the basis of the body weight and the fasting blood glucose level, the animals (models) with induced diabetes were grouped or divided into three (3) groups by randomized, multivariable block allocation.
To the three model groups with induced diabetes, a 0.5 v/v % Polysorbate 80 solution (0.5% P) (10 mL/kg), the compound A (3 mg/kg), and the compound C (dutasteride) (0.3 mg/kg) were orally administered, respectively, wherein the administration schedule in all groups was a frequency of once a day, only on weekdays, over four (4) weeks. Moreover, to the above-mentioned first group, a 0.5 v/v % Polysorbate 80 solution (0.5% P) (10 mL/kg) was orally administered in the same administration schedule (normal group). On the last day of administration, a cannula was inserted into and secured to the dome of the bladder under isoflurane anesthesia, and cystometry (Cystometogram, CMG) was conducted in the order of under awake condition and under urethane anesthesia to measure the intravesical pressure, the voided volume, and the residual urine volume. After the completion of the measurement, the blood was collected under deep isoflurane anesthesia, and then the prostate (ventral prostate, dorsolateral prostate) was extracted and each was weighed. Moreover, the blood glucose level in the collected blood was measured.
The test substances and the dosage in the test system (rats having the urination disorder associated with diabetes) are as follows. • Normal group: citrate buffer 10 mL/kg (intraperitoneal administration), 0.5% P 10 mL/kg (oral administration) (n=10) • Solvent group (control group): STZ 50 mg/kg (intraperitoneal administration), 0.5% P 10 mL/kg (oral administration) (n=10) • Group A3: STZ 50 mg/kg (intraperitoneal administration), Compound A 3 mg/kg (oral administration) (n=10) • Group C0.3: STZ 50 mg/kg (intraperitoneal administration), Compound C (dutasteride) 0.3 mg/kg (oral administration) (n=10)
Urination parameter: In the same manner as in Test Example 4, the residual urine volume (mL) and the urination efficiency % were determined as urination parameters in each urination, and the average value of two measurements was taken as a measured value of each individual.
Prostate weight: In the same manner as in Test Example 4, the weight of the prostate (ventral prostate, dorsolateral prostate, and whole) was converted to a tissue weight per 100 g of the body weight. […]

Data set [2] relates to lower urinary tract obstruction model of rats. The data set is described as follows: Test Example 1: urination function in female rat lower urinary tract obstruction model (cystometry, tissue wet weights, survival). Type of data set: in vivo. The settings on record: Group A: 10 mg/kg oral once a day, 2 weeks. The source says: A lower urinary tract obstruction model of rats was used as a test system. A test substance was orally administered to the lower urinary tract obstruction model repeatedly over two (2) weeks to examine the action on the urination function in the lower urinary tract obstruction model.
More specifically, the rats (female, Crl:CD(SD), 8-week-old; Charles River Laboratories Japan, Inc.) were operated to form lower urinary tract obstruction and repeatedly received oral administration of the test substance at a frequency of once a day over two (2) weeks. After the completion of the administration, each rat was subjected to bladder catheterization under anesthesia, cystometry under no anesthesia, then cystometry under urethane anesthesia, and euthanasia under deep anesthesia, and the tissues (bladder, kidney) of the rat were extracted or surgically removed. As a normal group, the rats without operation for forming lower urinary tract obstruction were used.
The test system, the test substances, and the dosage are as follows. • Normal group: 0.5 v/v. Polysorbate 80 solution, 10 mL/kg (n=6) • Solvent group (control group): 0.5 v/v % Polysorbate 80 solution, 10 mL/kg (n=15) • Group A: Compound A, 10 mg/kg (n=15) • Group B3: Compound B, 3 mg/kg (n=7) • Group B10: Compound B, 10 mg/kg (n=7)
The residual urine volume, the urination efficiency, and the bladder capacity were measured as follows.
After urination, the residual urine was aspirated from the outlet end of the catheter placed in the bladder to measure the volume (mL) of the residual urine.
After urination, the weight of the voided urine was measured to determine the voided volume (g=mL), and then the urination efficiency was calculated by the following equation: Urination efficiency (%)=[(Voided volume (mL))/(Voided volume (mL)+Residual urine volume (mL))]×100 [Bladder Capacity]
The bladder capacity was calculated from the voided volume and the residual urine volume by the following equation: Bladder capacity(mL)=Voided volume (mL)+Residual urine volume (mL)
Moreover, the wet weight of the extracted bladder and that of the extracted kidney were measured.

The mark [3] stands for this setting: Group A3: 3 mg/kg oral, 4 weeks, relative to solvent group.

With `CC(=O)O[C@]1(C(C)=O)C[C@@H](O)[C@H]2[C@@H]3C=C(Cl)C4=CC(=O)OC[C@]4(C)[C@H]3CC[C@@]21C` [Compound A, 17α-acetoxy-6-chloro-15β-hydroxy-2-oxa-4,6-pregnadiene-3,20-dione], the “therapeutic effect on diabetes (blood glucose level)” value in data set [1] (Group A3: 3 mg/kg oral, 4 weeks) is given as “no therapeutic effect on diabetes”. In data set [1] (setting [3]), the “Dorsolateral prostate (atrophy rate)” value is “(40.2%)”, the “Ventral prostate (atrophy rate)” value is listed as “(40.0%)” and the “Whole prostate (atrophy rate)” value was “(40.1%)”. Besides, the residual urine volume entry in data set [1] (Group A3: 3 mg/kg, cystometry under awake condition, vs solvent group (p<0.05), FIG. 19) is listed as “significantly decreased”. Further, the urination efficiency result in data set [1] (Group A3: 3 mg/kg, cystometry under awake condition, vs solvent group (p<0.05), FIG. 20) was “significantly improved”. In addition, the “bladder contraction force on urination by nomogram analysis” value in data set [1] (Group A3: 3 mg/kg, in comparison with the solvent group and Group C0.3, FIG. 21) is on record as “strong bladder contraction force”. The bladder wet weight result in data set [2] (FIG. 4) is listed as “significantly inhibiting the increase”. Besides, the kidney wet weight entry in data set [2] (FIG. 5) is reported as “significantly inhibiting the increase”. Also, the survival rate entry in data set [2] (FIG. 6) was “no decrease”. The residual urine volume entry in data set [2] (vs control (solvent) group, FIG. 1) is listed as “significantly decreased”. Also, the urination efficiency result in data set [2] (vs control group, FIG. 2) was “increased”. In data set [2] (vs control group, FIG. 3), the bladder capacity entry is “significantly decreased”.

The values are drawn from patent publication US12458650B2, “Urination disorder-improving agent” (ASKA Pharmaceutical Co., Ltd., priority 2019, dated 2025).
